Source: article PMC6736568, “Discovery of Novel Anti-cryptosporidial Activities From Natural Products by in vitro High-Throughput Phenotypic Screening” (Frontiers in Microbiology, 2019)
Structures can show the parent of a compound that is named as a salt. Where two headings read alike, the source gives them in different places.

What was measured:
Cryptosporidium parvum = assay: qRT-PCR assay of the growth of C. parvum in vitro in HCT-8 host cells (primary and secondary screening, EC50); format: cell-based; conditions: Cryptosporidium parvum, HCT-8; for inhibition at 10 µM: primary screening at 10 uM, read-out: Inhibition (%); for inhibition at 3.3 µM: secondary screening at 3.3 uM, read-out: % Inhibition (3.3 uM)
[1] = primary screening at 10 uM, treated vs control

| Compound | inhibition at 10 µM (Cryptosporidium parvum) | Hs18S ΔCT (HCT-8 host cells (Hs18S); human, 41 h, 10 μM) | cytotoxicity at 41 h, 10 µM (in vitro; human) | inhibition at 3.3 µM (Cryptosporidium parvum) | Hs18S ΔCT (HCT-8 host cells (Hs18S); [1]) | cytotoxicity at 10 µM (in vitro) | cytotoxicity at 41 h, 10 µM (in vitro) |
| --- | --- | --- | --- | --- | --- | --- | --- |
| C=C[C@H]1C[N@@]2CC[C@H]1C[C@@H]2[C@@H](O)c1ccnc2ccc(OC)cc12 [QUINIDINE GLUCONATE] | 11.2% | -0.03 | -2% |  |  |  |  |
| C=C[C@H]1C[N@@]2CC[C@H]1C[C@H]2[C@H](O)c1ccnc2ccc(OC)cc12 [QUININE SULFATE] | -15.4% | -0.12 | -8.7% |  |  |  |  |
| COC(=O)[C@H]1[C@H]2C[C@H]3c4[nH]c5ccccc5c4CCN3C[C@H]2CC[C@@H]1O [RAUWOLSCINE HYDROCHLORIDE] | 22.9% | -0.17 | -12.6% |  |  |  |  |
| COC(=O)[C@H]1[C@H]2C[C@@H]3c4[nH]c5cc(OC)ccc5c4CCN3C[C@H]2C[C@@H](OC(=O)c2cc(OC)c(OC)c(OC)c2)[C@@H]1OC [RESERPINE] | 87% | 0.50 | 29.4% | 24% |  |  |  |
| COc1ccc(/C=C/c2cc(O)cc(O)c2)cc1 [RESVERATROL 4'-METHYL ETHER] | -37.3% |  |  |  | -0.37 | -29% |  |
| Oc1ccc(/C=C/c2cc(O)cc(O)c2)cc1 [RESVERATROL] | 93.5% |  | -9.6% | -24% | -0.13 |  |  |
| CC1=C(/C=C/C(C)=C/C=C/C(C)=C/CO)C(C)(C)CCC1 [RETINOL] | 6.73% | 0.09 | 6.3% |  |  |  |  |
| COc1cc(O)c2c(=O)c(OC)c(-c3ccc(OC)c(OC)c3)oc2c1 [RETUSIN] | 33.2% |  |  |  | 0.27 | 17% |  |
| CNc1ccccc1C(=O)N1CCc2c([nH]c3ccccc23)C1=O [RHETSININE] | -31.2% | 0.51 | 29.6% |  |  |  |  |
| COC1=C(O)C(=O)c2c(cc3oc(C(C)=O)c(O)c3c2O)C1=O [RHODOCLADONIC ACID] | 1.58% | -0.03 | -2.1% |  |  |  |  |
| C[C@@H]1O[C@@H](O[C@H]2[C@H](Oc3cc(O)c4c(=O)cc(-c5ccc(O)cc5)oc4c3)O[C@H](CO)[C@@H](O)[C@@H]2O)[C@H](O)[C@H](O)[C@H]1O [RHOIFOLIN] | 54.6% | -0.26 | -20% |  |  |  |  |
| Cc1cc2nc3c(=O)[nH]c(=O)nc-3n(C[C@H](O)[C@H](O)[C@H](O)CO)c2cc1C [RIBOFLAVIN] | -26.6% | 0.02 | 1.1% |  |  |  |  |
| COc1ccc(-c2c(O)c3c(OC)c4c(cc3oc2=O)OC(C)(C)C=C4)cc1 [ROBUSTIC ACID] | 9.13% | 0.28 | 17.8% |  |  |  |  |
| O=C(/C=C/c1ccc(O)c(O)c1)O[C@H](Cc1ccc(O)c(O)c1)C(=O)O [ROSMARINIC ACID] | 37.3% | -0.04 | -3.1% |  |  |  |  |
| C=C(C)[C@H]1Cc2c(ccc3c2O[C@@H]2COc4cc(OC)c(OC)cc4[C@@H]2C3=O)O1 [ROTENONE] | 74.7% |  |  | 76% | 1.24 | 57.8% |  |
| COc1cc2c(cc1OC)[C@@H]1C(=O)c3ccc(OC)c(CC=C(C)C)c3O[C@@H]1CO2 [ROTENONIC ACID, METHYL ETHER] | 11.8% |  |  |  | 0.30 | 18.7% |  |
| CC[C@@]1(O)C[C@H](O)c2c(cc3c(c2O)C(=O)c2c(O)ccc(O)c2C3=O)[C@H]1C(=O)OC [RUTILANTINONE] | 92% |  |  | -3% | -0.54 | -45.2% |  |
| C=CCc1ccc2c(c1)OCO2 [SAFROLE] | 76.2% |  |  | 8% | -0.44 | -35.3% |  |
| OCc1ccccc1O[C@@H]1O[C@H](CO)[C@@H](O)[C@H](O)[C@H]1O [SALICIN] | 37.1% | 0.58 | 32.9% |  |  |  |  |

| Compound | inhibition at 10 µM (Cryptosporidium parvum) | Hs18S ΔCT (HCT-8 host cells (Hs18S); human, 41 h, 10 μM) | cytotoxicity at 41 h, 10 µM (in vitro; human) | inhibition at 3.3 µM (Cryptosporidium parvum) | Hs18S ΔCT (HCT-8 host cells (Hs18S); [1]) | cytotoxicity at 10 µM (in vitro) | cytotoxicity at 41 h, 10 µM (in vitro) |
| --- | --- | --- | --- | --- | --- | --- | --- |
| OC[C@H]1O[C@@H](OCCc2ccc(O)cc2)[C@H](O)[C@@H](O)[C@@H]1O [SALIDROSIDE] | 14.8% | -0.22 | -16.1% |  |  |  |  |
| COc1cc2c(cc1OC)[C@H](C)NCC2 [SALSOLIDINE] | 47.1% |  |  |  | 0.32 |  | 20% |
| C[n+]1cc2c3c(ccc2c2ccc4cc5c(cc4c21)OCO5)OCO3 [SANGUINARINE SULFATE] | 18.6% |  |  |  | 0.07 | 4.9% |  |
| CC1=C2[C@H]3OC(=O)[C@@H](C)[C@@H]3CC[C@@]2(C)C=CC1=O [SANTONIN] | 9.41% |  |  |  | 0.18 | 11.8% |  |
| COc1ccc2c(c1)OC/C(=C\c1ccc(OC)c(O)c1)C2=O [SAPPANONE A DIMETHYL ETHER] | 11.1% | 0.18 | 11.8% |  |  |  |  |
| COc1ccc2c(c1)OC/C(=C/c1ccc(OC)c(OC)c1)C2=O [SAPPANONE A TRIMETHYL ETHER] | 3.07% |  |  |  | 0.23 | 14.7% |  |
| C=C[C@](C)(O)CC[C@@H]1[C@@]2(C)CCCC(C)(C)[C@@H]2CC[C@@]1(C)O [SCLAREOL] | 7.29% | -0.15 | -10.7% |  |  |  |  |
| CN1[C@@H]2C[C@@H](OC(=O)[C@H](CO)c3ccccc3)C[C@H]1[C@@H]1O[C@@H]12 [SCOPOLAMINE HYDROBROMIDE] | 14% |  |  |  | -0.37 | -29.6% |  |
| O=C1C=C2C=C[C@@H]3C[C@@]2(O1)[C@H]1CCCCN31 [SECURININE] | 9.24% |  |  |  | 0.05 | 3.6% |  |
| O=C(O)c1cc(O)c2c(c1)[C@H]([C@H]1c3cc(C(=O)O)cc(O)c3C(=O)c3c(O[C@@H]4O[C@H](CO)[C@@H](O)[C@H](O)[C@H]4O)cccc31)c1cccc(O[C@@H]3O[C@H](CO)[C@@H](O)[C@H](O)[C@H]3O)c1C2=O [SENNOSIDE A] | -4.71% |  |  |  | -0.08 | -6.1% |  |
| NCCc1c[nH]c2ccc(O)cc12 [SEROTONIN HYDROCHLORIDE] | 10.2% |  |  |  | -0.40 | -31.7% |  |
| COc1cc(C2Oc3cc([C@H]4Oc5cc(O)cc(O)c5C(=O)[C@@H]4O)ccc3OC2CO)ccc1O (stereo partly shown) [SILIBININ] | 93.5% | -0.02 | -1.4% | -30% |  |  |  |
| COc1cc(/C=C/C(=O)O)cc(OC)c1OC [SINAPIC ACID METHYL ETHER] | -20.8% |  |  |  | 0.66 | 36.6% |  |
| COc1ccc(-c2cc(=O)c3c(OC)c(OC)c(OC)cc3o2)cc1OC [SINENSETIN] | 42.8% | 0.39 | 23.6% |  |  |  |  |
| CO[C@H]1C[C@@H]2CC[C@@H](C)[C@@](O)(O2)C(=O)C(=O)N2CCCC[C@H]2C(=O)O[C@H]([C@H](C)C[C@@H]2CC[C@@H](O)[C@H](OC)C2)CC(=O)[C@H](C)/C=C(\C)[C@@H](O)[C@@H](OC)C(=O)[C@H](C)C[C@H](C)/C=C/C=C/C=C/1C [SIROLIMUS] | 76.6% | 0.94 | 47.9% | 35% |  |  |  |
| CN[C@@H]1[C@@H](O)[C@@H](O[C@@H]2[C@@H](O)[C@H](O[C@H]3OC(CN)=CC[C@H]3N)[C@@H](N)C[C@H]2N)OC[C@]1(C)O [SISOMICIN SULFATE] | 41.1% | -0.11 | -7.8% |  |  |  |  |
| CC[C@H](CC[C@@H](C)[C@H]1CC[C@H]2[C@@H]3CC=C4C[C@@H](OC(C)=O)CC[C@]4(C)[C@H]3CC[C@]12C)C(C)C [SITOSTERYL ACETATE] | -3.86% | -0.17 | -12.4% |  |  |  |  |
| C[C@@H]1CC[C@@]2(NC1)O[C@H]1C[C@H]3[C@@H]4CC=C5C[C@@H](O)CC[C@]5(C)[C@H]4CC[C@]3(C)[C@H]1[C@@H]2C [SOLASODINE] | -28.3% |  |  |  | 0.07 | 4.6% |  |
| OC[C@@H](O)[C@@H](O)[C@H](O)[C@@H](O)CO [SORBITOL] | -33.8% | -0.18 | -13.2% |  |  |  |  |
